Measurements: PMC11500415, “Chemical inhibition of stomatal differentiation by perturbation of the master-regulatory bHLH heterodimer via an ACT-Like domain” (Nature Communications, 2024)
“And” between values parts separate entries of the source, which are not always exact repeats. Equal entries are not always repeated.

Test system: Arabidopsis wild-type (WT) seedlings
Assay: Stomatal development bioassay, seedlings in liquid culture
Format: in vivo
Conditions: for reduction of total number of stomata and meristemoids / decrease of the number of stomata from mock / increase of the number of meristemoids from mock: WT (Fig. 1e); for meristemoid density, mean / stomata density, mean / total (stomata+meristemoid) density, mean: mean of n=8 (Fig. 1e); for Number of stomata per 1 mm2 of cotyledon abaxial epidermis: single seedlings n=8 (Fig. 2c); for effect on stomatal development (in words): WT seedlings
Experimental: Arabidopsis accession Columbia (Col-0) was used as wild-type. […] Their genotype and transcript reduction were confirmed. The presence of transgenes/mutant alleles were confirmed by genotyping. For liquid culture with Stomidazolone (AYSJ929, compound 3), the analogs (AYSJ1059 (compound 5) and AYSJ1061 (compound 6)), degraded compound lzx103 (compound 4), and SIM3* (compound 7), all compounds were dissolved in dimethyl sulfoxide (DMSO, Molecular biology grade, Fujifilm Wako, Japan 046-21981), Col-0 seeds were sown in 96-well plates (TL5003; True Line) containing 95 μL of 1/2 MS media containing 0.5% sucrose with rotary shaking at 140 rpm under continuous light at 22 °C. Five μL of compounds were dissolved in DMSO at 10 mM and diluted with liquid 1/2 MS media to 1 mM and added on 1-day-old seedlings (final concentration, 50 μM). Seedlings were incubated for 8 days, and at day 9 seedling abaxial cotyledons were observed through confocal microscopy. For liquid culture of scrm-D_S343 and scrm-D_S423, 1/2 MS liquid media without sucrose was used. For the solid culture, 0, 20, 50 or 100 μM Stomidazolone were solidified with low-melting agarose (5805S, PrimeGelTM Agarose LMT 1-20 K, TAKARA Bio). Briefly, 1/2 MS salt, 0.5% sucrose, and 0.8% low melting agarose were mixed in water and autoclaved. After cooling the medium at around 30 °C, Stomidazolone (500x, dissolved in DMSO) was added and poured into 90 mm petri dishes (Asnol Petri Dish JP φ90 x 15 mm, 3-1491-01, AS ONE). Col-0 seeds were sown on Stomidazolone-containing 1/2 MS agarose media and grown under continuous light for 9 days.
For confocal microscopy, cell peripheries of seedlings were visualized with propidium iodide (Sigma, P4170). Images were acquired using LSM800 or LSM700 (Zeiss) using a 20x lens. The GFP, YFP reporter and PI signals were detected with excitation at 488 nm and an emission filter of 410 to 546 nm, at 488 nm and an emission filter of 410 to 546 nm, and with excitation at 561 nm and 582–617 nm emission range, respectively. Raw data were collected with 1024 × 1024 pixel images. For qualitative image presentation, Adobe Photoshop CC was used to trim and uniformly adjust the contrast/brightness.
For quantitative analysis of the abaxial leaf epidermis, confocal images were taken on the days after germination as indicated in the Figure legends. Preparation of images was done as described previously[32],[70]. For counting epidermal cell types, stomatal density, stomatal precursor cells (meristemoids), total stomata-lineage cells (stomata and meristemoids) were calculated by counting cell types in an area of 0.4 mm^2 (0.63 mm × 0.63 mm) and plotted as per mm^2. A series of Z-stack confocal images was obtained to obtain images covering the epidermis and capturing GFP/YFP signal from the reporter lines. The area and the number of epidermal cells were quantified by using FIJI-ImageJ. Statistical analyses were performed using R ver. 4.0.2. Sample sizes (n) are indicated and defined in each legend. For the multiple sample comparison, 1-way ANOVA was performed followed by a post hoc Tukey HSD test. For the two-sample comparison, Student’s T-test was performed. Graphs were generated using R ggplot2 package. For all boxplots, each box represents IQR (interquartile range), in which top, middle line, and bottom indicating 75, 50, and 25 percentiles, respectively, and the bar representing maximum to minimal values. Each magenta dot represents jittered individual data point. The datapoints that go beyond the bar are outliers, which are indicated as black dots. If the data point is greater than Q3 + 1.5*IQR (above the third quartile is greater than 1.5 times of the interquartile range) or less than Q1 − 1.5*IQR, that data point is classified as outlier. The color of Boxplot graph was based on ColorBrewer.org. The value of n, the number of each experiment or samples, the means of error bars, and how statistical significance was defined are indicated in a relevant figure legend. […]

[1] = 50 μM, WT, single seedlings n=8 (Fig. 4b)
[2] = 50 μM, cotyledon abaxial epidermis, individual seedlings

## O=C1C(c2ccccc2)=NC(NS(=O)(=O)c2ccccc2)(c2ccccc2)N1S(=O)(=O)c1ccccc1 (stereo not shown) [Stomidazolone]
20 μM
  reduction of total number of stomata and meristemoids: 14.46%
20 uM, WT cotyledon abaxial epidermis, 9 dag, single seedlings n=8 (Fig. 1e)
  Total (stomata+meristemoid) density: 156 per mm^2 and 173 per mm^2 and 163 per mm^2 and 168 per mm^2 and 107 per mm^2 and 154 per mm^2 and 144 per mm^2 and 124 per mm^2
20 uM, WT, 9 dag, single seedlings n=8 (Fig. 1e)
  Stomata density: 115 per mm^2 and 141 per mm^2 and 144 per mm^2 and 132 per mm^2 and 88 per mm^2 and 127 per mm^2
20 uM, WT, mock mean 7.875
  meristemoid density, mean: 24.875 per mm^2
20 uM, WT, mock mean 165.75
  stomata density, mean: 124.25 per mm^2
20 uM, WT, mock mean 173.75
  total (stomata+meristemoid) density, mean: 148.625 per mm^2
50 μM
  decrease of the number of stomata from mock: 59.50%
  increase of the number of meristemoids from mock: 801.5%
  reduction of total number of stomata and meristemoids: 25.03%
50 uM, WT, 9 dag, single seedlings n=8 (Fig. 1e)
  Total (stomata+meristemoid) density: 166 per mm^2 and 149 per mm^2 and 124 per mm^2 and 132 per mm^2 and 146 per mm^2 and 100 per mm^2 and 115 per mm^2 and 110 per mm^2
50 μM, WT, 9 dag
  Number of stomata per 1 mm2 of cotyledon abaxial epidermis: 70 per 1 mm2 and 109 per 1 mm2 and 90 per 1 mm2 and 124 per 1 mm2 and 129 per 1 mm2 and 112 per 1 mm2 and 117 per 1 mm2
50 uM, WT
  meristemoid density, mean: 63.125 per mm^2
  stomata density, mean: 67.125 per mm^2
  total (stomata+meristemoid) density, mean: 130.25 per mm^2
[1]
  Stomata density: 90 per mm2 and 117 per mm2 and 102 per mm2 and 75 per mm2 and 107 per mm2 and 148 per mm2
  Total (stomata+meristemoid) density: 104 per mm2 and 136 per mm2 and 119 per mm2 and 102 per mm2 and 87 per mm2 and 124 per mm2 and 168 per mm2 and 158 per mm2
50 μM, WT, single seedlings n=8 (Fig. 4b, replotted 4k)
  Meristemoid density: 15 per mm2 and 19 per mm2 and 17 per mm2 and 12 per mm2 and 10 per mm2
[2]
  Meristemoid density: 0 per mm2 and 2 per mm2 and 10 per mm2 and 5 per mm2 and 7 per mm2
  Stomata density: 214 per mm2 and 241 per mm2 and 216 per mm2 and 228 per mm2 and 194 per mm2 and 250 per mm2 and 182 per mm2 and 207 per mm2
  Total cell density: 214 per mm2 and 243 per mm2 and 226 per mm2 and 233 per mm2 and 199 per mm2 and 253 per mm2 and 190 per mm2 and 209 per mm2
100 μM
  decrease of the number of stomata from mock: 69.53%
  increase of the number of meristemoids from mock: 647.6%
100 uM, WT, 9 dag, single seedlings n=8 (Fig. 1e)
  Total (stomata+meristemoid) density: 120 per mm^2 and 85 per mm^2 and 71 per mm^2 and 112 per mm^2 and 95 per mm^2 and 122 per mm^2
100 uM, WT
  meristemoid density, mean: 51 per mm^2
  stomata density, mean: 50.5 per mm^2
  total (stomata+meristemoid) density, mean: 101.25 per mm^2
Liquid culture, even at 100 μM (Fig. 1f)
  effect on overall seedling growth: does not affect

## Cc1ccc(C2(NS(=O)(=O)c3ccccc3)N=C(c3ccccc3)C(=O)N2S(=O)(=O)c2ccccc2)cc1 (stereo not shown) [AYSJ1059]
50 μM, liquid culture
  effect on stomatal development (in words): did not affect the number of stomata
50 μM, WT, 9 dag
  Number of stomata per 1 mm2 of cotyledon abaxial epidermis: 202 per 1 mm2 and 209 per 1 mm2 and 187 per 1 mm2 and 245 per 1 mm2 and 192 per 1 mm2 and 182 per 1 mm2 and 199 per 1 mm2 and 175 per 1 mm2

## O=C1C(c2ccccc2)=NC(NS(=O)(=O)c2ccccc2)(c2ccc(Br)cc2)N1S(=O)(=O)c1ccccc1 (stereo not shown) [AYSJ1061]
50 μM, liquid culture
  effect on stomatal development (in words): did not affect the number of stomata
50 μM, WT, 9 dag
  Number of stomata per 1 mm2 of cotyledon abaxial epidermis: 160 per 1 mm2 and 190 per 1 mm2 and 148 per 1 mm2 and 192 per 1 mm2 and 173 per 1 mm2 and 255 per 1 mm2 and 236 per 1 mm2
